Laboratory results from ChEMBL document CHEMBL5385950, “Terpenoids from the Soft Coral Stereonephthya bellissima” (J Nat Prod, 2024).
The source made the active and inactive calls. The rule behind the calls is not given here.

Species on record: Danio rerio
Assay: Pro-angiogenesis activity against PTK787 induced vascular injury in Tg(vegfr2: EGFP) zebrafish at 20 uM measured after 24 hrs by fluorescence imaging analysis
Format: functional, organism-based

How did the Activity turn out when `CC(=O)C1=CCC[C@]23O[C@H]2CC[C@](C)(O)[C@@]13C` was run?
The Activity was “Active”.
